Where “and” joins values, the source holds several entries; their conditions need not be identical. Equal values may be shown once. Read-outs that look alike come from different tables or passages of the source.
How the values were obtained:
COX-2 [1] = assay: COX-2 expression, immunohistochemistry, human derived microglial cells (Example 4); format: cell-based; conditions: 2 μg/ml, N = 9
Experimental: (§1) Immunohistochemistry (Protein Level) Assay: Cells were fixed for 10 min with 4% paraformaldehyde (PFA) in PBS. After 3×5 minutes washing with PBS, cells were incubated with primary antibodies (anti-COX2) 1:1000 overnight at 4 °C, and after 3×5 minutes washing in PBS, cells were then incubated in appropriate fluorescent secondary antibody 1:250 (Invitrogen) for 2 hours at room temperature. After a final wash, as previous, cells nuclei were sained with DAPI in the mounting media. Photomicrographs were taken of the cells in three fields of view per well from duplicate wells and analysed using Fiji for area coverage of each marker.
(§2) The tubes are then placed in a sonication bath for 10 mins at 35-40 C. Upon completion of the sonication samples are then placed in a tray shaker (200 rpm) for 30 minutes at room temperature. Once completed the samples are then centrifuged at 4400 rpm for 5 minutes. The supernatant is collected for testing and development.
(§3) For the CBD sample, a pure standard (in powder form) was used. CBD 98% isolate was purchased as a reference standard from LGC Standards (London UK) (CAS No. 13956-29-1). The CBD standard reference was prepared at concentration of 1 mg/ml (in acetonitrile). CBD dilutions were made in acetonitrile as follows: 2 μg/ml; 6 μg/ml; and 0.1 μg/ml.

[2] = tested on: cannabinoid receptor type 2 (CB2); conditions: cited from earlier work
TNF-alpha = TNF-alpha level in microglial media, multiplex cytokine assay (Example 4); format: cell-based, human; conditions: 2 μg/ml; interleukin and interferon activation
Experimental: (§4) Multiplex Cytokine/Chemokine Assay: Microglia media harvested following treatment initiation was centrifuged briefly to remove particulates (300 g for 10 min). Cytokine and chemokine levels in the microglial media were measured using a Bio-Plex 200 with a 96-well magnetic plate assay according to the manufacturer's instructions (Bio-Rad). Cytokines and chemokines measured included IL-1α, IL-1β, IL-2, IL-6, IL-10, IL-12 (p70), IL-13, G-CSF, GM-CSF, IFNγ, TNFα, CXCL1 (KC), CCL2 (MCP-1), and CCL5 (RANTES). All samples were run in duplicate and data were analyzed with the Bio-Plex Manager software.
as §2, §3

COX-2 [3] = assay: COX-2 activity, immunohistochemistry, human derived microglial cells, diclofenac combination (Example 6); format: cell-based; design: unit not given here; conditions: 2 μg/ml each, I&I inflammation activation, N = 9
Experimental: as §1, with “Human derived microglial cells” for “Immunohistochemistry (Protein Level) Assay: Cells”
COX-2 is measured using the immunohistochemistry assay—as described above. […] In the treatment groups, these cells are also treated with various treatments and COX-2 expression is then assessed following these treatments (1 hr after treatment).
as §2, with “In this example, ethanol extraction was used. […] The tubes” for “The tubes”
For the CBD sample, a pure standard (in powder form) was used. CBD 98% isolate was purchased as a reference standard from LGC Standards (London UK) (CAS No. 13956-29-1). […]

IL-12 = IL-12 level in microglial media, multiplex cytokine assay (Example 4); format: cell-based, human; conditions: 2 μg/ml; interleukin and interferon activation; control 99.91
Experimental: as §4, §2, §3

neutrophil = conditions: cited from earlier work
[4] = tested on: cannabinoid receptor type 1 (CB1); conditions: cited from earlier work
[5] = Stability of NTI164 oil formulation at room temperature (UPLC)
[6] = tested on: excitotoxic cell injury paradigm; assay: Cell death in an excitotoxic cell injury paradigm; format: cell-based, human
Experimental: Neuronal viability was quantified using MTT [3-(4,5-dimethylthiazol-2-yl-)-2,5-diphenyl-2H-tetrazolium bromide; Sigma]. […] Cellular excitotoxicity was achieved via glutamate activation (3 mM).

human microglial cells = assay: DAPI cell viability stain (Example 4); format: cell-based
[7] = animals; cited from earlier work
IL-1a [8] = assay: IL-1a release from BV2 microglia, celecoxib combination (Example 7); format: cell-based; conditions: Celebrex 5 uM; NTI164 7.5 uM (as headed); combination Celebrex 5 uM + NTI164 7.5 ug/ml; activated control 154.83
Experimental: (§5) The immortalized microglia cell line, BV2, was purchased from the American Tissue Culture Collection. BV2 were cultured in RPMI media containing gentamycin and supplemented with 10% fetal bovine serum (FBS) for expansion and 5% FBS when plated for experiments. All cells were from between passage numbers 39 and 45. Cells were plated at […] and treated 24 hours after plating with phosphate buffered saline (PBS, as a control) or interleurkin-1B+interferon-γ (IL-1B+IFNγ, to induce inflammation).
as §4, with “Microglia” for “Multiplex Cytokine/Chemokine Assay: Microglia”, “that” for “and data”, “averaged for analysis, at least three samples per group were run.” for “analyzed with the Bio-Plex Manager software.”

GM-CSF [9] = assay: GM-CSF release from BV2 microglia, celecoxib combination (Example 7); format: cell-based; conditions: Celebrex 5 uM; NTI164 7.5 uM (as headed); combination Celebrex 5 uM + NTI164 7.5 ug/ml; activated control 768.13
Experimental: as §5
as §4, with “Microglia” for “Multiplex Cytokine/Chemokine Assay: Microglia”, “that” for “and data”, “averaged for analysis, at least three samples per group were run.” for “analyzed with the Bio-Plex Manager software.”

IL-6 [10] = assay: IL-6 release from BV2 microglia, celecoxib combination (Example 7); format: cell-based; conditions: Celebrex 5 uM; NTI164 7.5 uM (as headed); combination Celebrex 5 uM + NTI164 7.5 ug/ml; activated control 366.33
Experimental: as §5
as §4, with “Microglia” for “Multiplex Cytokine/Chemokine Assay: Microglia”, “that” for “and data”, “averaged for analysis, at least three samples per group were run.” for “analyzed with the Bio-Plex Manager software.”

TNF-a [11] = assay: TNF-a release from BV2 microglia, celecoxib combination (Example 7); format: cell-based; conditions: Celebrex 5 uM; NTI164 7.5 uM (as headed); combination Celebrex 5 uM + NTI164 7.5 ug/ml; activated control 45
Experimental: as §5
as §4, with “Microglia” for “Multiplex Cytokine/Chemokine Assay: Microglia”, “that” for “and data”, “averaged for analysis, at least three samples per group were run.” for “analyzed with the Bio-Plex Manager software.”

GM-CSF [12] = assay: GM-CSF, prednisone combination (Example 8); format: cell-based; conditions: PDN 5 uM; NTI164 7.5 ug/ml; combination PDN 5 uM + NTI164 7.5 ug/ml; activated control 768.13
Description: (§6) Student's t-test was used for statistical analysis.

IL-6 [13] = assay: IL-6, prednisone combination (Example 8); format: cell-based; conditions: PDN 5 uM; NTI164 7.5 ug/ml; combination PDN 5 uM + NTI164 7.5 ug/ml; activated control 366.33
Description: as §6

IL-1a [14] = assay: IL-1a, prednisone combination (Example 8); format: cell-based; conditions: PDN 5 uM; NTI164 7.5 ug/ml; combination PDN 5 uM + NTI164 7.5 ug/ml; activated control 154.83
Description: as §6

TNF-a [15] = assay: TNF-a, prednisone combination (Example 8); format: cell-based; conditions: PDN 5 uM; NTI164 7.5 ug/ml; combination PDN 5 uM + NTI164 7.5 ug/ml; activated control 45
Description: as §6

[16] = in vitro, at low concentrations

For `C=C(C)[C@@H]1CCC(C)=C[C@H]1c1c(O)cc(CCCCC)cc1O` [CBD, Cannabidiol], the “COX-2 expression, average +/- SEM, exposure after inflammatory insult” value (COX-2 [1]; exposure 1 hour after inflammatory insult (interleukin and interferon gamma), control 104.26) is given as 76.32 +/− 7.95 (SEM), the “COX-2 expression, average +/- SEM, exposure before inflammatory insult” value (COX-2 [1]; exposure 1 hour prior to inflammatory insult (interleukin and interferon gamma), control 94.47) is given as 84.82 +/− 7.65 (SEM) and the “Affinity for CB2” value ([2]; compared to Δ9-THC) is given as “low affinity”. For the same compound, the CB2 antagonistic effect [2, 16] was “weak CB1 and CB2 antagonistic effect”, the “TNF-alpha, average +/- SD” value (TNF-alpha) was 71.13 +/− 12.81 and the “COX-2 activity, individual replicate” value (COX-2 [3]; 1 hr after treatment) was 42.4 and 44.92 and 109.99 and 136.99 and 117.84 and 43.14 and 77.81 and 59.02 and 73.8. The “COX-2 activity, mean” value (COX-2 [3]; activated control mean 101.39) was 78.43, the “IL-12, average +/- SD” value (IL-12) was 84.40 +/− 6.54 and the “Neutrophil chemotaxis and proliferation” value (neutrophil) was “inhibit neutrophil chemotaxis and proliferation”. The “Allosteric modulation of CB1” value [4] was “negative allosteric modulator of CB1”, the “Affinity for CB1” value ([4]; compared to Δ9-THC) was “low affinity” and the CB1 antagonistic effect [4, 16] was “weak CB1 and CB2 antagonistic effect”. The “Allosteric modulation of CB1” value ([4]; listed as Cannabidiol) was “negative allosteric modulator of the cannabinoid CB1 receptor”, the “Cannabinoid content of NTI164, Day 14” value [5] was 0.56 mg/mL and the “Cannabinoid content of NTI164, Day 0” value ([5]; NTI164 oil, room temperature, Day 0) was 0.46 mg/mL. The “Cannabinoid content of NTI164, Day 2” value ([5]; NTI164 oil, room temperature, Day 2) was 0.56 mg/mL, the “Cannabinoid content of NTI164, Day 7” value ([5]; NTI164 oil, room temperature, Day 7) was 0.53 mg/mL and the “Cannabinoid content of NTI164, Day 28” value ([5]; NTI164 oil, room temperature, Day 28) was 0.54 mg/mL. The “Cannabinoid content of NTI164, Week 5” value ([5]; NTI164 oil, room temperature, Week 5) was 0.60 mg/mL, the “Cannabinoid content of NTI164, Week 6” value ([5]; NTI164 oil, room temperature, Week 6) was 0.51 mg/mL and the “Cannabinoid content of NTI164, Week 32” value ([5]; NTI164 oil, room temperature, Week 32) was 0.48 mg/mL. The “Toxicity / effect on cell number and cell viability” value [6] was “toxic in this paradigm”, the “Cell death by DAPI cell viability stain” value (human microglial cells) was “DAPI cell viability stain: No cell death was detected and assessed as per the DAPI cell staining method” and the Oral bioavailability [7] was 13-19%.

In the case of `Cc1ccc(-c2cc(C(F)(F)F)nn2-c2ccc(S(N)(=O)=O)cc2)cc1` [Celebrex, celecoxib], the IL-1a (IL-1a [8]) is reported as 112.5, the GM-CSF (GM-CSF [9]) is reported as 511.97 and the IL-6 (IL-6 [10]) is reported as 128.50. It also gave a TNF-a (TNF-a [11]) of 30.17.

With `C[C@]12C=CC(=O)C=C1CC[C@@H]1[C@@H]2C(=O)C[C@@]2(C)[C@H]1CC[C@]2(O)C(=O)CO` [PDN, Prednisone] the GM-CSF (GM-CSF [12]) was 611.97, the IL-6 (IL-6 [13]) was 228.50 and the IL-1a (IL-1a [14]) was 144.5. It also gave a TNF-a (TNF-a [15]) of 30.17.

Source: patent US20260335341A1, “METHODS FOR TREATING PAEDIATRIC NEUROLOGICAL DISORDERS” (Neurotech International Limited, priority 2022, published 2026)
